Data: the supplement of paper PMC10307832

Experiments:
Assay in all cases: relative viability (nuclei count vs DMSO), 5 days (fraction); higher = more cells survive
QS11 + AZD7762 = compound: C1CC2=C(C1)C=C(C=C2)OC3=NC(=C4C(=N3)N(C=N4)CC5=CC=C(C=C5)C6=CC=CC=C6)N[C@@H](CC7=CC=CC=C7)CO [QS11] + NC(=O)Nc1cc(-c2cccc(F)c2)sc1C(=O)N[C@H]1CCCNC1 [AZD7762] (partner 0.2 µM)
How it was run: (§1)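 The day after seeding in 1536-well plates, lung cancer cell lines were treated by pin tool with a single drug, or with a fixed anchor-drug dose together with five library-drug doses (not always all listed) in √10 steps. After 5 days, a combined fix-and-stain solution (final 0.05% Triton X-100, 1% formaldehyde, 1 ug/ml Hoechst) was added. Nuclei counted on 4× images gave relative viability as treated counts over vehicle counts, reported as the median of duplicate plates.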

AZ628 + Palbociclib = compound: CC1=C(C=C(C=C1)NC(=O)C2=CC(=CC=C2)C(C)(C)C#N)NC3=CC4=C(C=C3)N=CN(C4=O)C [AZ628] + CC(=O)c1c(C)c2cnc(Nc3ccc(N4CCNCC4)cn3)nc2n(C2CCCC2)c1=O [Palbociclib] (partner 0.5 µM)
How it was run: as §1

AZ628 + Linsitinib = compound: CC1=C(C=C(C=C1)NC(=O)C2=CC(=CC=C2)C(C)(C)C#N)NC3=CC4=C(C=C3)N=CN(C4=O)C [AZ628] + C[C@]1(O)C[C@@H](c2nc(-c3ccc4ccc(-c5ccccc5)nc4c3)c3c(N)nccn32)C1 [Linsitinib] (partner 1 µM)
How it was run: as §1

AZ628 + Tozasertib = compound: CC1=C(C=C(C=C1)NC(=O)C2=CC(=CC=C2)C(C)(C)C#N)NC3=CC4=C(C=C3)N=CN(C4=O)C [AZ628] + Cc1cc(Nc2cc(N3CCN(C)CC3)nc(Sc3ccc(NC(=O)C4CC4)cc3)n2)n[nH]1 [Tozasertib] (partner 0.1 µM)
How it was run: as §1

| Cell Line | relative viability (QS11 + AZD7762; first compound 0.08 µM) | relative viability (QS11 + AZD7762; first compound 0.253 µM) | relative viability (QS11 + AZD7762; first compound 0.8 µM) | relative viability (QS11 + AZD7762; first compound 2.53 µM) | relative viability (QS11 + AZD7762; first compound 8 µM) | relative viability (AZ628 + Palbociclib; first compound 0.08 µM) | relative viability (AZ628 + Palbociclib; first compound 0.253 µM) | relative viability (AZ628 + Palbociclib; first compound 0.8 µM) | relative viability (AZ628 + Palbociclib; first compound 2.53 µM) | relative viability (AZ628 + Palbociclib; first compound 8 µM) | relative viability (AZ628 + Linsitinib; first compound 0.08 µM) | relative viability (AZ628 + Linsitinib; first compound 0.253 µM) | relative viability (AZ628 + Linsitinib; first compound 0.8 µM) | relative viability (AZ628 + Linsitinib; first compound 2.53 µM) | relative viability (AZ628 + Linsitinib; first compound 8 µM) | relative viability (AZ628 + Tozasertib; first compound 0.08 µM) | relative viability (AZ628 + Tozasertib; first compound 0.253 µM) | relative viability (AZ628 + Tozasertib; first compound 0.8 µM) | relative viability (AZ628 + Tozasertib; first compound 2.53 µM) | relative viability (AZ628 + Tozasertib; first compound 8 µM) |
| --- | --- | --- | --- | --- | --- | --- | --- | --- | --- | --- | --- | --- | --- | --- | --- | --- | --- | --- | --- | --- |
| NCI-H1975 | 0.668 | 0.629 | 0.849 | 0.874 | 0.919 | 0.504 | 0.485 | 0.548 | 0.534 | 0.233 | 0.908 | 0.949 | 0.895 | 0.904 | 0.647 | 0.794 | 0.562 | 0.449 | 0.453 | 0.163 |
| BEN | 0.577 | 0.66 | 0.929 | 0.773 | 0.79 | 0.487 | 0.489 | 0.46 | 0.51 | 0.452 | 1.1 | 0.864 | 0.793 | 0.903 | 0.772 | 0.511 | 0.498 | 0.444 | 0.471 | 0.383 |
| NCI-H1437 | 1.12 | 1.18 | 0.891 | 1.08 | 1.11 | 0.317 | 0.297 | 0.274 | 0.425 | 0.379 | 0.966 | 0.846 | 0.958 | 0.779 | 0.848 | 0.402 | 0.408 | 0.428 | 0.418 | 0.375 |
| NCI-H1734 | 0.579 | 0.595 | 0.71 | 0.465 | 0.529 | 0.367 | 0.301 | 0.299 | 0.319 | 0.225 | 0.853 | 0.794 | 0.804 | 0.759 | 0.496 | 0.258 | 0.267 | 0.196 | 0.243 | 0.197 |
| NCI-H596 | 1.07 | 0.94 | 1.22 | 1.03 | 1.27 |  |  |  |  |  | 1.03 | 1.12 | 0.982 | 1.1 | 1.22 | 0.768 | 0.827 | 0.956 | 0.886 | 0.848 |
| LOU-NH91 | 0.764 | 0.707 | 0.751 | 0.719 | 0.818 | 0.535 | 0.526 | 0.547 | 0.557 | 0.539 | 0.962 | 1 | 1.07 | 0.964 | 0.66 | 0.568 | 0.7 | 0.7 | 0.629 | 0.573 |
| NCI-H2342 | 0.489 | 0.47 | 0.502 | 0.488 | 0.456 | 0.544 | 0.513 | 0.562 | 0.511 | 0.537 |  |  |  |  |  | 0.616 | 0.529 | 0.673 | 0.514 | 0.471 |
| NCI-H522 | 0.798 | 0.871 | 0.878 | 1.11 | 0.863 | 0.947 | 0.954 | 0.842 | 1.04 | 0.75 |  |  |  |  |  | 0.578 | 0.547 | 0.542 | 0.523 | 0.57 |
| SK-MES-1 |  |  |  |  |  | 0.361 | 0.343 | 0.246 | 0.324 | 0.328 | 0.98 | 1.06 | 0.939 | 1.03 | 0.637 | 0.952 | 0.875 | 1.01 | 0.959 | 0.443 |
| UMC-11 |  |  |  |  |  | 0.405 | 0.299 | 0.347 | 0.324 | 0.292 | 1.02 | 1.12 | 1.03 | 0.976 | 1.02 | 0.228 | 0.21 | 0.194 | 0.212 | 0.203 |
| LK-2 | 0.388 | 0.643 | 0.527 | 0.412 | 0.455 | 0.911 | 0.849 | 0.412 | 0.736 | 0.366 | 0.694 | 0.458 | 0.437 | 0.527 | 0.235 | 0.166 | 0.167 | 0.17 | 0.173 | 0.165 |
| CAL-12T | 0.736 | 0.572 | 0.546 | 0.596 | 0.551 | 0.473 | 0.304 | 0.209 | 0.232 | 0.161 | 0.788 | 0.677 | 0.585 | 0.679 | 0.357 | 0.343 | 0.366 | 0.288 | 0.292 | 0.182 |
| PC-3 [JPC-3] |  | 0.767 | 0.736 | 0.792 | 0.832 | 0.505 | 0.583 | 0.583 | 0.597 | 0.6 | 0.893 | 0.971 | 1.01 | 1.04 | 0.952 | 0.909 | 0.909 | 0.926 | 0.91 | 0.798 |
| NCI-H1651 | 0.445 | 0.481 | 0.487 | 0.458 | 0.404 | 0.544 | 0.536 | 0.529 | 0.562 | 0.625 | 1.16 | 1.08 | 1.12 | 1.05 | 0.989 | 0.726 | 0.656 | 0.579 | 0.653 | 0.43 |
| NCI-H650 | 0.762 | 0.981 | 0.775 | 1.05 | 0.645 | 0.366 | 0.425 | 0.475 | 0.545 | 0.374 | 1.09 | 0.911 | 1.25 | 0.952 | 0.78 | 0.855 | 0.713 | 0.722 | 0.789 | 0.446 |
| HOP-62 | 0.556 | 0.611 | 0.538 | 0.608 | 0.582 | 0.49 | 0.473 | 0.491 | 0.492 | 0.314 | 1.09 | 0.919 | 1.06 | 1.17 | 0.535 | 0.396 | 0.38 | 0.362 | 0.358 | 0.326 |
| LC-2-ad | 0.726 | 0.865 | 0.666 | 0.926 | 1.03 | 0.473 | 0.51 | 0.424 | 0.468 | 0.373 | 0.882 | 0.829 | 0.883 | 0.832 | 0.486 | 0.445 | 0.427 | 0.548 | 0.392 | 0.354 |
